Converted amounts (≈) assume the structure as drawn.

Type in all cases: cell-based, Staphylococcus aureus
One test relates to Staph aureus 2811. In words: MIC, microtiter broth dilution (CLSI M7-A7), Assay 1, Table 12 column D, no serum. As to conditions: for MIC: Staphylococcus aureus, 2811, Staph aureus 2811, Assay 1, no serum; for MIC, column D: Staph aureus 2811, Assay 1, no serum. The procedure, abridged:
(§1)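 Broth microdilution in microtiter trays per CLSI M7-A7, interpreted per M100-S16; MIC (μg/ml) is the lowest concentration preventing visible growth. Serum condition used Mueller-Hinton Broth with 50% pooled inactivated human serum. Repeated runs reported as geometric mean.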
A general note: Broth dilution looks for growth in wells or tubes with falling amounts of substance.

Test [1] relates to Staph aureus 1146. Briefly: MIC in Mueller-Hinton Broth with 50% pooled inactivated human serum, Assay 1, Table 12. As to conditions: for MIC: Staphylococcus aureus, 1146, Staph aureus 1146, Assay 1, 50% human serum, read-out: MIC, column C; for MIC, column C: Staph aureus 1146, Assay 1, 50% human serum. Put shortly: as §1
The subject of another test is Staph aureus 2812. In words: MIC, microtiter broth dilution (CLSI M7-A7), Assay 1, Table 12 column E, no serum. The note with it: for MIC: Staphylococcus aureus, 2812, Staph aureus 2812, Assay 1, no serum; for MIC, column E: Staph aureus 2812, Assay 1, no serum. Put shortly: as §1
For test [2], the system named is Staph aureus 1146. In words: MIC, microtiter broth dilution (CLSI M7-A7), Assay 1, Table 12 column B, no serum. The note with it: for MIC: Staphylococcus aureus, 1146, Staph aureus 1146, Assay 1, no serum; for MIC, column B: Staph aureus 1146, Assay 1, no serum. Put shortly:
as §1

The next test concerns Staph aureus 1095 MRSA. In words: MIC, microtiter broth dilution (CLSI M7-A7), Assay 1, Table 12 column A, no serum. The note with it: Assay 1, no serum; for MIC: Staphylococcus aureus, MRSA. Put shortly: as §1

On to `COc1ccc2nccc(C(O)CC[C@@H]3CCN(C4CC(c5nc(C6CCC6)no5)C4)C[C@@H]3C(=O)O)c2c1` (stereo partly drawn) [Example 163, (3R,4R)-1-[3-(3-cyclobutyl-1,2,4-oxadiazol-5-yl)cyclobutyl]-4-[3-hydroxy-3-(6-methoxyquinolin-4-yl)propyl]piperidine-3-carboxylic acid], for which the MIC against Staph aureus 2811 is more than 64 µg/mL; in the test with Staph aureus 1146 [1], more than 64 µg/mL; against Staph aureus 2812, more than 64 µg/mL; against Staph aureus 1146 [2] it was 64 µg/mL (≈ 123 µM); against Staph aureus 1095 MRSA, more than 64 µg/mL.
Regarding `COc1ccc2nccc(C(O)CC[C@@H]3CCN(C4CC(c5nc(C(C)(C)C)no5)C4)C[C@@H]3C(=O)O)c2c1` (stereo partly drawn) [Example 164, (3R,4R)-1-[3-(3-tert-butyl-1,2,4-oxadiazol-5-yl)cyclobutyl]-4-[3-hydroxy-3-(6-methoxyquinolin-4-yl)propyl]piperidine-3-carboxylic acid], the MIC with Staph aureus 2811 was 64 µg/mL (≈ 122 µM); in the test with Staph aureus 1146 [1] it was more than 64 µg/mL; in the test with Staph aureus 2812, 64 µg/mL (≈ 122 µM); against Staph aureus 1146 [2], 64 µg/mL (≈ 122 µM); against Staph aureus 1095 MRSA, more than 64 µg/mL.
Turning to `COc1ccc2nccc(C(O)CC[C@@H]3CCN(C4CC(c5nc(C6CC6)no5)C4)C[C@@H]3C(=O)O)c2c1` (stereo partly drawn) [Example 165, (3R,4R)-1-[3-(3-cyclopropyl-1,2,4-oxadiazol-5-yl)cyclobutyl]-4-[3-hydroxy-3-(6-methoxyquinolin-4-yl)propyl]piperidine-3-carboxylic acid], the MIC against Staph aureus 2811 was 32 µg/mL (≈ 63.2 µM); in the test on Staph aureus 1146 [1] it was more than 64 µg/mL; in the test on Staph aureus 2812 it was 64 µg/mL (≈ 126 µM); in the test on Staph aureus 1146 [2] it was 32 µg/mL (≈ 63.2 µM); in the test on Staph aureus 1095 MRSA it was more than 64 µg/mL.
For the compound `COc1ccc2nccc(C(O)CC[C@@H]3CCN(C4CC(c5nc(C(C)C)no5)C4)C[C@@H]3C(=O)O)c2c1` (stereo partly drawn) [Example 166, (3R,4R)-4-[3-hydroxy-3-(6-methoxyquinolin-4-yl)propyl]-1-[3-(3-isopropyl-1,2,4-oxadiazol-5-yl)cyclobutyl]piperidine-3-carboxylic acid], the MIC against Staph aureus 2811, in the test with Staph aureus 1146 [1], in the test on Staph aureus 2812, against Staph aureus 1146 [2] and in the test with Staph aureus 1095 MRSA was more than 64 µg/mL each time.
As for `CCCc1noc(C2CC(N3CC[C@@H](CCC(O)c4ccnc5ccc(OC)cc45)[C@@H](C(=O)O)C3)C2)n1` (stereo partly drawn) [Example 167, (3R,4R)-4-[3-hydroxy-3-(6-methoxyquinolin-4-yl)propyl]-1-[3-(3-propyl-1,2,4-oxadiazol-5-yl)cyclobutyl]piperidine-3-carboxylic acid], the MIC in the test with Staph aureus 2811, with Staph aureus 1146 [1], against Staph aureus 2812, in the test with Staph aureus 1146 [2] and in the test with Staph aureus 1095 MRSA was more than 64 µg/mL in each case.
As for `CCOCCc1noc(C2CC(N3CC[C@@H](CCC(O)c4ccnc5ccc(OC)cc45)[C@@H](C(=O)O)C3)C2)n1` (stereo partly drawn) [Example 168, (3R,4R)-1-{3-[3-(2-ethoxyethyl)-1,2,4-oxadiazol-5-yl]cyclobutyl}-4-[3-hydroxy-3-(6-methoxyquinolin-4-yl)propyl]piperidine-3-carboxylic acid], the MIC with Staph aureus 2811, with Staph aureus 1146 [1], against Staph aureus 2812, in the test on Staph aureus 1146 [2] and with Staph aureus 1095 MRSA was more than 64 µg/mL each time.
Consider `COCc1noc(C2CC(N3CC[C@@H](CCC(O)c4ccnc5ccc(OC)cc45)[C@@H](C(=O)O)C3)C2)n1` (stereo partly drawn) [Example 169, (3R,4R)-4-[3-hydroxy-3-(6-methoxyquinolin-4-yl)propyl]-1-{3-[3-(methoxymethyl)-1,2,4-oxadiazol-5-yl]cyclobutyl}piperidine-3-carboxylic acid], for which the MIC with Staph aureus 2811, in the test with Staph aureus 1146 [1], in the test on Staph aureus 2812, in the test on Staph aureus 1146 [2] and against Staph aureus 1095 MRSA was more than 64 µg/mL in each case.
Turning to `COc1ccc2nccc(C(O)CC[C@@H]3CCN(C4CC(c5nc(CC6CC6)no5)C4)C[C@@H]3C(=O)O)c2c1` (stereo partly drawn) [Example 170, (3R,4R)-1-{3-[3-(cyclopropylmethyl)-1,2,4-oxadiazol-5-yl]cyclobutyl}-4-[3-hydroxy-3-(6-methoxyquinolin-4-yl)propyl]piperidine-3-carboxylic acid], the MIC against Staph aureus 2811, with Staph aureus 1146 [1], in the test on Staph aureus 2812, against Staph aureus 1146 [2] and against Staph aureus 1095 MRSA was more than 64 µg/mL in each case.
`COc1ccc2nccc(C(O)CC[C@@H]3CCN(C4CC(c5cc(C)on5)C4)C[C@@H]3C(=O)O)c2c1` (stereo partly drawn) [Example 171, (3R,4R)-4-[3-Hydroxy-3-(6-methoxy-quinolin-4-yl)-propyl}-1-[3-(5-methyl-isoxazol-3-yl)-cyclobutyl]-piperidine-3-carboxylic acid]: the MIC with Staph aureus 2811 is 8 µg/mL (≈ 16.7 µM); in the test on Staph aureus 1146 [1], 16 µg/mL (≈ 33.4 µM); in the test with Staph aureus 2812 it was 8 µg/mL (≈ 16.7 µM); against Staph aureus 1146 [2] it was 8 µg/mL (≈ 16.7 µM); in the test with Staph aureus 1095 MRSA it was 16 µg/mL (≈ 33.4 µM).
In the case of `COc1ccc(F)c(C2CC(N3CC[C@@H](CC[C@H](O)c4ccnc5ccc(OC)cc45)[C@@H](C(=O)O)C3)C2)c1` (stereo partly drawn) [Example 172, (3R,4R)-1-[3-(2-fluoro-5-methoxyphenyl)cyclobutyl]-4-[(3S)-3-hydroxy-3-(6-methoxyquinolin-4-yl)propyl]piperidine-3-carboxylic acid], the MIC worked out at 1 µg/mL (≈ 1.91 µM) against Staph aureus 2811; 32 µg/mL (≈ 61.2 µM) in the test with Staph aureus 1146 [1]; 2 µg/mL (≈ 3.83 µM) against Staph aureus 2812; 2 µg/mL (≈ 3.83 µM) in the test on Staph aureus 1146 [2]; 4 µg/mL (≈ 7.65 µM) against Staph aureus 1095 MRSA.
On to `COc1ccc2ncc(F)c(CCCC3(C(=O)O)CCN(C4CC(c5ccccc5)C4)C3)c2c1` (stereo not drawn) [Example 173, 3-[3-(3-fluoro-6-methoxyquinolin-4-yl)propyl]-1-(3-phenylcyclobutyl)pyrrolidine-3-carboxylic acid], for which the MIC was less than 0.0625 µg/mL in the test with Staph aureus 2811; 8 µg/mL (≈ 17.3 µM) with Staph aureus 1146 [1]; less than 0.0625 µg/mL against Staph aureus 2812; less than 0.0625 µg/mL with Staph aureus 1146 [2]; less than 0.0625 µg/mL with Staph aureus 1095 MRSA.
Turning to `COc1ccc2ncc(F)c(CCCC3(C(=O)O)CCN(C4CC(c5c(F)cccc5F)C4)C3)c2c1` (stereo not drawn) [Example 174, 1-[3-(2,6-difluorophenyl)cyclobutyl]-3-[3-(3-fluoro-6-methoxyquinolin-4-yl)propyl]pyrrolidine-3-carboxylic acid], the MIC against Staph aureus 2811, against Staph aureus 2812, in the test with Staph aureus 1146 [2] and with Staph aureus 1095 MRSA was less than 0.0625 µg/mL throughout. For the same compound, in the test with Staph aureus 1146 [1], the “MIC, column C” value was found to be 4.00 µg/mL (≈ 8.02 µM).
As for `COc1ccc2ncc(Cl)c(C(O)CCC3(C(=O)O)CCN(C4CC(c5ccccc5)C4)C3)c2c1` (stereo not drawn) [Example 175, 3-[3-(3-chloro-6-methoxyquinolin-4-yl)-3-hydroxypropyl]-1-(3-phenylcyclobutyl)pyrrolidine-3-carboxylic acid], the MIC against Staph aureus 2811 was less than 0.0625 µg/mL; in the test on Staph aureus 1146 [1], 4 µg/mL (≈ 8.08 µM); in the test on Staph aureus 2812, less than 0.0625 µg/mL; with Staph aureus 1146 [2], less than 0.0625 µg/mL; against Staph aureus 1095 MRSA, 0.5 µg/mL (≈ 1.01 µM).
On to `COc1ccc2ncc(Cl)c(C(O)CCC3(C(=O)O)CCN(C4CC(c5c(F)cccc5F)C4)C3)c2c1` (stereo not drawn) [Example 176, 3-[3-(3-chloro-6-methoxyquinolin-4-yl)-3-hydroxypropyl]-1-[3-(2,6-difluorophenyl)cyclobutyl] pyrrolidine-3-carboxylic acid], for which the MIC in the test with Staph aureus 2811 was less than 0.0625 µg/mL; with Staph aureus 1146 [1] it was 4 µg/mL (≈ 7.53 µM); with Staph aureus 2812 it was less than 0.0625 µg/mL; against Staph aureus 1146 [2], less than 0.0625 µg/mL; against Staph aureus 1095 MRSA, 0.125 µg/mL (≈ 0.235 µM).
Regarding `COc1ccc2nccc(C(O)CC[C@@H]3CCN(CC4CC(c5ccccc5)C4)C[C@@H]3C(=O)O)c2c1` (stereo partly drawn) [Example 178, (3R,4R)-4-[3-hydroxy-3-(6-methoxyquinolin-4-yl)propyl]-1-[(3-phenylcyclobutyl)methyl]piperidine-3-carboxylic acid], the “MIC, column D” value against Staph aureus 2811 came to 2.00 µg/mL (≈ 4.09 µM). Moreover, the “MIC, column C” value in the test on Staph aureus 1146 [1] stood at 32.0 µg/mL (≈ 65.5 µM). Moreover, the “MIC, column E” value in the test with Staph aureus 2812 worked out at 4.00 µg/mL (≈ 8.19 µM). Besides, the “MIC, column B” value with Staph aureus 1146 [2] worked out at 2.00 µg/mL (≈ 4.09 µM). Also, the “MIC, column A” value against Staph aureus 1095 MRSA turned out to be 8.00 µg/mL (≈ 16.4 µM).
On to `COc1ccc2nc(C)cc(C(O)CC[C@@H]3CCN(C4CC(c5c(F)cccc5F)C4)C[C@@H]3C(=O)O)c2c1` (stereo partly drawn) [Example 179, (3R,4R)-1-[3-(2,6-difluorophenyl)cyclobutyl]-4-[3-hydroxy-3-(6-methoxy-2-methylquinolin-4-yl)propyl] piperidine-3-carboxylic acid], for which the MIC was 1 µg/mL (≈ 1.91 µM) in the test on Staph aureus 2811; 32 µg/mL (≈ 61 µM) in the test with Staph aureus 1146 [1]; 1 µg/mL (≈ 1.91 µM) in the test on Staph aureus 2812; 1 µg/mL (≈ 1.91 µM) against Staph aureus 1146 [2]; 2 µg/mL (≈ 3.81 µM) in the test with Staph aureus 1095 MRSA.
Turning to `COc1ccc2ncc(F)c(CCCC3(C(=O)O)CCN(C4CC(c5c(F)cccc5F)C4)C3)c2c1` (stereo not drawn) [Example 180, 1-[3-(2,6-difluorophenyl)cyclobutyl]-3-[3-(3-fluoro-6-methoxyquinolin-4-yl)propyl]pyrrolidine-3-carboxylic acid], in the test on Staph aureus 2811, the “MIC, column D” value is less than 0.0625 µg/mL. For the same compound, the “MIC, column C” value in the test with Staph aureus 1146 [1] was found to be 16.0 µg/mL (≈ 32.1 µM). The “MIC, column E” value against Staph aureus 2812 is less than 0.0625 µg/mL. Moreover, in the test with Staph aureus 1146 [2], the “MIC, column B” value was less than 0.0625 µg/mL. Besides, the “MIC, column A” value against Staph aureus 1095 MRSA is less than 0.0625 µg/mL.
Turning to `COc1ccc2ncc(F)c(CCCC3(C(=O)O)CCN(C4CC(c5c(F)cccc5F)C4)C3)c2c1` (stereo not drawn) [Example 181, 1-[3-(2,6-difluorophenyl)cyclobutyl]-3-[3-(3-fluoro-6-methoxyquinolin-4-yl)propyl]pyrrolidine-3-carboxylic acid], the “MIC, column D” value against Staph aureus 2811 was less than 0.0625 µg/mL. In the test with Staph aureus 1146 [1], the “MIC, column C” value was determined as 16.0 µg/mL (≈ 32.1 µM). Further, the “MIC, column E” value in the test with Staph aureus 2812 is less than 0.0625 µg/mL. Also, the “MIC, column B” value with Staph aureus 1146 [2] was less than 0.0625 µg/mL. Further, the “MIC, column A” value in the test with Staph aureus 1095 MRSA is less than 0.0625 µg/mL.

As a reminder, the MIC is the least concentration at which growth counts as inhibited.

These data come from US20080280879A1, “SUBSTITUTED HETEROCYCLIC DERIVATIVES AND THEIR PHARMACEUTICAL USE AND COMPOSITIONS” (priority 2007, published 2008).
